Experimental data reported in US20240208972A1, “LRRK2 INHIBITORS AND USES THEREOF” (NEURON23, INC., priority 2022, published 2024).

Assay: Brain penetration (Kp,uu) in CD-1 mice, with plasma and brain tissue binding by equilibrium dialysis
Assay type: in vivo
Settings: mouse, brain and plasma (unbound), male CD-1 mice, single IV bolus 1 mg/kg
Protocol: The compounds disclosed herein were tested on CD-1 mice for brain penetration (Kp, uu) according to the following procedures.
Nine male CD-1 mice were administered TEST COMPOUND by single intravenous bolus administration at 1 mg/kg. The vehicle used for IV study was 5% DMSO, 5% solutol, 20% PEG300 and 70% water. The detailed dosing and sampling regimens are described in the following tables.
1.0 mg of test compound was accurately weighed into a glass vial, and slowly added with 104 μL of DMSO and vortexed for 1 min. Then 104 μL of solutol was added and vortexed for 1 min. Then 415 μL of PEG300 was added and vortexed for 1 min. Then 1000 μL of water was added and vortexed for 1 min. Finally, 451 μL of water was added and vortexed for 1 min to get a clear solution.
The body weights were in the range from 28.81 to 31.25 g for males on the first dosing day. All animals received a single intravenous bolus administration of TEST COMPOUND from the tail vein.
Each blood collection (about 0.06 mL per time point) was performed from saphenous vein of each animal into pre-chilled commercial K2-EDTA tubes as anti-coagulant and placed on wet ice until centrifugation.
Plasma samples were then prepared by centrifuging the blood samples at approximately 4° C., 3200×g for 10 minutes. All plasma samples were then quickly frozen over dry ice and kept at −60° C. or lower until LC-MS/MS analysis.
Brain tissue was homogenized using homogenizing buffer (15 mM PBS (pH7.4): MeOH=2:1) at the ratio of 1:9 (1 g tissue with 9 mL buffer, the dilution ratio is 10). The tissue homogenate was kept at −60° C. or lower until LC-MS/MS analysis.
The concentrations of TEST COMPOUND in plasma and brain were determined by using an LC-MS/MS method.
The plasma and brain concentration of TEST COMPOUND in study animals was subjected to a non-compartmental pharmacokinetic analysis by using the Phoenix WinNonlin software program (version 6.3 or above, Pharsight). The linear/log trapezoidal rule was applied in obtaining the PK parameters.
Individual plasma and brain concentration values that were below the lower limit of quantitation (LLOQ) were excluded from the PK parameter calculation. The nominal dose levels and nominal sampling times were used in the calculation of all pharmacokinetic parameters.
Mouse Kp, uu=(% free in mouse brain*concentration in mouse brain)/(% free in mouse plasma*concentration in mouse plasma)
The dialysis apparatus was assembled according to the manufacturer's instruction. Each Cell was filled with 120 μL of spiked plasma sample and dialyzed against equal volume of dialysis buffer (PBS). The assay was performed in duplicate. The dialysis plates were sealed and incubated in an incubator at 37° C. with 5% CO2 and rotated at 100 rpm for 6 hours. At the end of incubation, the seals were removed and 50 μL of samples from both buffer and plasma chambers were transferred to a 96-well plate.
All calculations were carried out using Microsoft Excel. The concentrations of test compound and control compound in the buffer and plasma chambers were determined from peak area ratios (PAR) of analyte to internal standard. Protein binding (% unbound and % bound) and recovery (% recovery) of test and control compounds was calculated as follows:
• 1. Thawing of the frozen brain (stored at −80° C.) • Frozen brain tissue was thawed at room temperature in a bath. Only brain tissue was used that was thawed no more than once. • 2. Preparation of brain tissue homogenate • Brain tissue homogenate was prepared by diluting one quantity (g) of the whole brain tissue with three volumes (mL) of buffer (PBS, pH 7.4) and homogenizing the mixture using a tissue homogenizer. Brain tissue homogenate was frozen at −80° C. for later use/comparison. • 3. Preparation of working solutions • The working solutions of test compound and the control compound propranolol were prepared in dimethyl sulfoxide (DMSO) at the concentration of 200 μM. […]

Row | Kp uu | Structure (SMILES)
1 | 0.2 to 0.4 | Cc1n[nH]c2c1N=C(c1c(F)cccc1F)Nc1c-2cc(N2CCN(CC(C)F)CC2)nc1C (racemic) [Example 20, 8-(2,6-difluorophenyl)-13-[4-(2-fluoropropyl)piperazin-1-yl]-5,11-dimethyl-3,4,7,9,12-pentazatricyclo[8.4.0.02,6]tetradeca-1(10),2(6),4,7,11,13-hexaene]
2 | > 0.4 | Cc1n[nH]c2c1N=C(c1c(F)cccc1F)Nc1c-2cc(N2CCN(CCF)C[C@H]2C)nc1C (single isomer, unassigned) [Example 18]
3 | 0.2 to 0.4 | Cc1n[nH]c2c1N=C(c1c(F)cccc1F)Nc1cnc(-c3cnn(C(F)F)c3)cc1-2 [Example 1, 9-(1-(difluoromethyl)-1H-pyrazol-4-yl)-5-(2,6-difluorophenyl)-3-methyl-1,6-dihydropyrazolo[4,3-d]pyrido[4,3-f][1,3]diazepine]
4 | > 0.4 | Cc1n[nH]c2c1N=C(c1c(F)cccc1F)Nc1c-2cc(N2CCN(CC(C)(C)F)CC2)nc1C [Example 5, 5-(2,6-difluorophenyl)-9-(4-(2-fluoro-2-methylpropyl)piperazin-1-yl)-3,7-dimethyl-1,6-dihydropyrazolo[4,3-d]pyrido[4,3-f][1,3]diazepine]
5 | 0.2 to 0.4 | Cc1n[nH]c2c1N=C(c1c(F)cccc1F)Nc1ccc(N3CCO[C@H](C)C3)cc1-2 [Example 7, (R)-4-(5-(2,6-difluorophenyl)-3-methyl-1,6-dihydrobenzo[d]pyrazolo[3,4-f][1,3]diazepin-9-yl)-2-methylmorpholine]
6 | 0.2 to 0.4 | Cc1n[nH]c2c1N=C(c1c(F)cccc1F)Nc1c-2cc(N2CCOCC2)nc1C [Example 8, 4-[8-(2,6-difluorophenyl)-5,11-dimethyl-3,4,7,9,12-pentazatricyclo[8.4.0.02,6]tetradeca-1(10),2(6),4,7,11,13-hexaen-13-yl]morpholine]
7 | > 0.4 | Cc1n[nH]c2c1N=C(c1c(F)cccc1F)Nc1c-2cc(N2CCN(CCF)CC2)nc1C [Example 9, 8-(2,6-difluorophenyl)-13-[4-(2-fluoroethyl)piperazin-1-yl]-5,11-dimethyl-3,4,7,9,12-pentazatricyclo[8.4.0.02,6]tetradeca-1(10),2(6),4,7,11,13-hexaene]
8 | < 0.2 | Fc1cccc(F)c1C1=Nc2c(C(F)F)n[nH]c2-c2cc(N3CCOCC3)ncc2N1 [Example 10, 4-[5-(difluoromethyl)-8-(2,6-difluorophenyl)-3,4,7,9,12-pentazatricyclo[8.4.0.02,6]tetradeca-1(10),2(6),4,7,11,13-hexaen-13-yl]morpholine]
9 | < 0.2 | Cc1n[nH]c2c1N=C(c1c(F)cccc1F)Nc1cnc(-c3ccn(C(F)F)n3)cc1-2 [Example 12, 13-[1-(difluoromethyl)pyrazol-3-yl]-8-(2,6-difluorophenyl)-5-methyl-3,4,7,9,12-pentazatricyclo[8.4.0.02,6]tetradeca-1(10),2(6),4,7,11,13-hexaene]
10 | > 0.4 | Cc1n[nH]c2c1N=C(c1c(F)cccc1F)Nc1ccc(-c3cnn(C(F)F)c3)cc1-2 [Example 13, 9-[1-(difluoromethyl)pyrazol-4-yl]-5-(2,6-difluorophenyl)-3-methyl-1,6-dihydropyrazolo[4,3-d][1,3]benzodiazepine]
11 | 0.2 to 0.4 | Cc1n[nH]c2c1N=C(c1c(F)cccc1F)Nc1cnc(C#CC3(C)CCOCC3)cc1-2 [Example 17, 8-(2,6-difluorophenyl)-5-methyl-13-[2-(4-methyltetrahydropyran-4-yl)ethynyl]-3,4,7,9,12-pentazatricyclo[8.4.0.02,6]tetradeca-1(10),2(6),4,7,11,13-hexaene]
12 | > 0.4 | Cc1n[nH]c2c1N=C(c1c(F)cccc1F)Nc1c-2cc(N2CCN(CC(F)F)CC2)nc1C [Example 19, 13-[4-(2,2-difluoroethyl)piperazin-1-yl]-8-(2,6-difluorophenyl)-5,11-dimethyl-3,4,7,9,12-pentazatricyclo[8.4.0.02,6]tetradeca-1(10),2(6),4,7,11,13-hexaene]
13 | < 0.2 | [2H]C1([2H])OC([2H])([2H])C([2H])([2H])N(c2ccc3c(c2)-c2[nH]nc(C)c2N=C(c2c(F)cccc2F)N3)C1([2H])[2H] [Example 22, 2,2,3,3,5,5,6,6-octadeuterio-4-[5-(2,6-difluorophenyl)-3-methyl-1,6-dihydropyrazolo[4,3-d][1,3]benzodiazepin-9-yl]morpholine]
14 | > 0.4 | Cc1n[nH]c2c1N=C(c1c(F)cccc1F)Nc1c-2cc(N2CCN(CC(F)(F)F)CC2)nc1C [Example 23, 5-(2,6-difluorophenyl)-3,7-dimethyl-9-(4-(2,2,2-trifluoroethyl)piperazin-1-yl)-1,6-dihydropyrazolo[4,3-d]pyrido[4,3-f][1,3]diazepine]
15 | 0.2 to 0.4 | Cc1n[nH]c2c1N=C(c1c(F)cccc1F)Nc1ccc(N3CCN(CCF)CC3)cc1-2 [Example 25, 5-(2,6-difluorophenyl)-9-[4-(2-fluoroethyl)piperazin-1-yl]-3-methyl-1,6-dihydropyrazolo[4,3-d][1,3]benzodiazepine]
16 | 0.2 to 0.4 | Cc1n[nH]c2c1N=C(c1c(F)cccc1F)Nc1ccc(N3CCO[C@@H](C)C3)cc1-2 [Example 26, (S)-4-(5-(2,6-difluorophenyl)-3-methyl-1,6-dihydrobenzo[d]pyrazolo[3,4-f][1,3]diazepin-9-yl)-2-methylmorpholine]
17 | 0.2 to 0.4 | Cc1n[nH]c2c1N=C(c1c(F)cc(F)cc1F)Nc1ccc(N3CCOCC3)cc1-2 [Example 27, 4-[3-methyl-5-(2,4,6-trifluorophenyl)-1,6-dihydropyrazolo[4,3-d][1,3]benzodiazepin-9-yl]morpholine]
18 | > 0.4 | Cc1n[nH]c2c1N=C(c1c(F)cccc1F)Nc1cc(F)c(N3CCOCC3)cc1-2 [Example 28, 4-[5-(2,6-difluorophenyl)-8-fluoro-3-methyl-1,6-dihydropyrazolo[4,3-d][1,3]benzodiazepine-9-yl]morpholine]
19 | > 0.4 | Cc1n[nH]c2c1N=C(c1c(F)cccc1F)Nc1ccc(N3CCOCC3)cc1-2 [Example 29, 4-(5-(2,6-difluorophenyl)-3-methyl-1,6-dihydrobenzo[d]pyrazolo[3,4-f][1,3]diazepin-9-yl)morpholine]
20 | > 0.4 | Cc1n[nH]c2c1N=C(c1c(F)cccc1F)Nc1c(F)cc(N3CCOCC3)cc1-2 [Example 30, 4-(5-(2,6-difluorophenyl)-7-fluoro-3-methyl-1,6-dihydrobenzo[d]pyrazolo[3,4-f][1,3]diazepin-9-yl)morpholine]
21 | 0.2 to 0.4 | CCc1n[nH]c2c1N=C(c1c(F)cccc1F)Nc1cnc(N3CCOCC3)cc1-2 [Example 31, 4-[8-(2,6-difluorophenyl)-5-ethyl-3,4,7,9,12-pentazatricyclo[8.4.0.02,6]tetradeca-1(10),2(6),4,7,11,13-hexaen-13-yl]morpholine]
22 | 0.2 to 0.4 | [2H]C([2H])([2H])c1n[nH]c2c1N=C(c1c(F)cccc1F)Nc1cnc(N3CCOCC3)cc1-2 [Example 32, 4-[8-(2,6-difluorophenyl)-5-(trideuteriomethyl)-3,4,7,9,12-pentazatricyclo[8.4.0.02,6]tetradeca-1(10),2(6),4,7,11,13-hexaen-13-yl]morpholine]
23 | 0.2 to 0.4 | [2H]C([2H])([2H])c1n[nH]c2c1N=C(c1c(F)cccc1F)Nc1ccc(N3CCOCC3)cc1-2 [Example 33, 4-[5-(2,6-difluorophenyl)-3-(trideuteriomethyl)-1,6-dihydropyrazolo[4,3-d][1,3]benzodiazepin-9-yl]morpholine]
24 | 0.2 to 0.4 | [2H]C([2H])([2H])c1n[nH]c2c1N=C(c1c(F)cccc1F)Nc1ccc(N3CCO[C@@H](C)C3)cc1-2 [Example 34, (2S)-4-[5-(2,6-difluorophenyl)-3-(trideuteriomethyl)-1,6-dihydropyrazolo[4,3-d][1,3]benzodiazepin-9-yl]-2-methyl-morpholine]
